Experimental data reported in patent US8063209B2, “Phosphonyl ester conjugates as prodrugs” (priority 2004, dated 2011).
Read-outs that look alike come from different tables or passages of the source.

Columns and labels:
[1] = Single pass intestinal perfusion with portal vein blood collection; type: in vivo, rat; conditions: for Pe-mes (mesenteric permeability): rat in situ single pass intestinal perfusion, portal vein plasma, pH 7.5 buffer
Description: Male albino Sprague-Dawley rats, 9-10 weeks old and weighing 250-400 g were used in the study. Prior to each experiment, the rats were fasted for 18 h with free access to water. The rats were anesthetized with an i.m. injection of ketamine/xylazinelbutorphanol (87, 6, and 0.2 mg/kg body weight, respectively). The abdomen was opened by a midline incision of 4-5 cm. A suitable intestinal segment of approximately 10-20 cm was cannulated on two ends and connected to a syringe pump that guided the solution through a water bath of 37° C. This isolated segment was then rinsed with buffer at the respective pH at a flow-rate of 0.5 ml/min in order to clean out any residual debris. A 10 mM HEPES (pH 7.5) buffer containing 135 mM NaCl, 5 mM KCl and 0.01% PEG 4000 was used for the perfusion buffer. The intestinal segments were perfused at a flow rate of approximately […] with these buffers containing test drug and ^14C-PEG 4000 as a non-absorbable marker for measuring water flux. […] Sample analysis for ^14C (PEG-4000) was performed by scintillation counting. For these studies, we also took blood from the portal vein (prehepatic) as described below. After a segment of intestine was cannulated, the portal vein was then immediately cannulated using a 24-gauge Angeocath catheter (Becton Dickinson, Sandy, Utah). The cannula was secured in place using cyanoacrylate glue or surgical tape and connected to an approximately 35 cm long Silastic tubing, which allowed blood to flow into vials placed about 25 cm below the mesenteric vein. The single-pass intestinal perfusion was initiated at this time. Blood flowing out of the mesenteric vein from the isolated intestinal segment was collected directly into vials, centrifuged immediately and plasma was separated and stored at −80° C.
Rat plasma samples were acidified and processed with solid phase extraction. Briefly, a cation exchange solid-phase cartridge (MCX, 30 mg/i. cc, Waters) was activated with 1.0 ml of methanol and equilibrated with 1.0 ml of water. A 500 μl aliquot of rat plasma was acidified and loaded onto the cartridge. After washing with 1.0 ml of 0.1 N HCl and 1.0 ml methanol, the compounds were eluted with 1 ml of 5% NH4OH in methanol. The solvent was evaporated under vacuum and the residue was reconstituted in 200 μl of water. Samples were analyzed using a LC-MS/MS system (Micromass Quattro II, HP 1100). Ten μl of sample was separated with a Cs column (2.1×150 mm) using a mobile phase of 5-10% acetonitrile:water containing 0.5% formic acid.
From the plasma concentration of compound, the mesenteric permeability was determined by substitution into Eq. (1), Flux=(A)(Pe-mes)(Ci) Eq. (1) where Flux is equal to the portal blood flow (estimated at 1 ml/min in the rat) X the steady state mesenteric blood concentration of cidofovir-based compound, A is the absorptive area of the intestine (estimated at 12.56 cm^2 in the rat intestine), Pe-mes is the mesenteric permeability (cm/s), and Ci is the starting concentration of the drug in the perfusate ([…]).

hPepT1 = molecular target: T1, hPepT1 (Homo sapiens, UniProt P46059); experiment: Competitive binding (3H Gly-Sar uptake inhibition) in hPepT1 over-expressing DC5 cells; type: cell-based; conditions: for affinity for PepT1: DC5 cells over-expressing hPepT1
T1 construct: expressed in transfected cells; host or cells: DC5 cells (hPepT1 over-expressing cell line)
T1 sequence (P46059 1-708): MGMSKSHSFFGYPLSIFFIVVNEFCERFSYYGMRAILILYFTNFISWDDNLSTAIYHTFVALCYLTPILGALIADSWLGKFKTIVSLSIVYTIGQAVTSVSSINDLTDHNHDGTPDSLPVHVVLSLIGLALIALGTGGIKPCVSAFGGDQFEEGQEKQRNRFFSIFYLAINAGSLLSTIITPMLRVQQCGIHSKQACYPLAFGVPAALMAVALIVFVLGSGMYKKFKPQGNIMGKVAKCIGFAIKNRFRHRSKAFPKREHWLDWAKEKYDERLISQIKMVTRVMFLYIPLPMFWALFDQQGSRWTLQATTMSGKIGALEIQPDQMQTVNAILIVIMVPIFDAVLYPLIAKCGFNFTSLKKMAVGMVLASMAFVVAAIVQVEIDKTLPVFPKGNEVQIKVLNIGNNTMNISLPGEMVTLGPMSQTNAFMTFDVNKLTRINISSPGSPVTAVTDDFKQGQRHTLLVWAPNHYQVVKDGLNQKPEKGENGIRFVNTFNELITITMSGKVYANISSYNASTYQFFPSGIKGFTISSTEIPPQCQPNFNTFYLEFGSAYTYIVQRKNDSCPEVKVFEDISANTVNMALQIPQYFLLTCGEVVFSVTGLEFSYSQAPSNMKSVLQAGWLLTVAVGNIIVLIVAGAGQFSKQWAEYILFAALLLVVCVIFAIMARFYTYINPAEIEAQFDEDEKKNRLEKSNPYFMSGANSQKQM
Description: Ki values for the cidofovir compounds were determined in the hPepT1 over-expressing cell line (DC5) using ^3H glycine-sarcosine (Gly-Sar). DC5 cells were plated (12,000 cells/well) in 96-well tissue culture plates (Falcon) and allowed to grow for 4 days. The cells were washed once with 200 μl of uptake buffer and aspirated. The plates were cooled to 4° C. and 25 μl of uptake buffer containing 50 μM Gly-Sar (0.5 μCi/ml) was added. The uptake buffer also contained the test cidofovir-based compounds over a range of concentrations. Uptake was initiated by placing the plate in a shaker water bath (37° C.) and terminated at 10 min by rapid washing with multiple changes of 4° C. PBS (Sigma). The radioactive peptide was extracted from the cell layer with 200 μl of methanol:water (1:1) and counted in 4 ml of CytoScint ESTM scintillation cocktail (ICN). Non-linear regression analysis of the data was used to determine the IC50 using the solver function in Microsoft Excel.

[2] = pH 3-5
[3] = cell and tissue homogenates
[4] = in vivo; cited from earlier work
[5] = DC5 cells, 50 μM 3H Gly-Sar, 10 min, 37° C., read-out: Gly-Sar inhibition, Ki

Compound | Pe-mes (mesenteric permeability) [1] [cm/s × 10^5] | Ki (hPepT1) [mM] | affinity for PepT1 (hPepT1) | Ki (hPepT1; [5]) [mM] | further results
COC(=O)[C@H](COP1(=O)CO[C@@H](Cn2ccc(N)nc2=O)CO1)NC(=O)[C@@H](N)C(C)C (mixture of isomers) [Compound 4, cHPMPC-Val-Ser(OMe)] | 1.18 | 2.7 ± 0.1 | significant affinity | – | transport on co-dosing with bestatin ([1]; co-dosing with the aminopeptidase inhibitor bestatin): enhanced transport; transport on co-perfusion with Gly-Sar ([1]; in situ perfusion model, co-perfusion with Gly-Sar): almost completely suppressed; transport vs. the parent drug ([1]; rat model): enhanced transport; stability in buffer [2]: stable; release of active drug [3]: rapidly released the active drug
COC(=O)[C@H](COP1(=O)CO[C@@H](Cn2ccc(N)nc2=O)CO1)NC(=O)[C@@H](N)CC(C)C (mixture of isomers) [Compound 7, cHPMPC-Leu-Ser(OMe)] | 0.48 | – | significant affinity | 5.4 ± 0.2 | –
Nc1ccn(C[C@@H](CO)OCP(=O)(O)O)c(=O)n1 [Cidofovir, (S)-1-(3-hydroxy-2-phosphonylmethoxypropyl)cytosine, reference compound] | 0.052 | – | – | 10.8 ± 0.3 | –
COC(=O)C(COP1(=O)COC(Cn2ccc(N)nc2=O)CO1)NC(=O)C(C)N (stereo not shown) [Compound 6, cHPMPC-Ala-Ser(OMe)] | 0.98 | 3.4 ± 0.2 | significant affinity | – | –
Nc1ccn(C[C@H]2COP(=O)(O)CO2)c(=O)n1 [Cyclic cidofovir, reference compound] | 0.003 | – | – | 10.7 ± 0.2 | –
CC(C)[C@H](N)C(=O)OCCOCn1cnc2c(=O)[nH]c(N)nc21 [Valacyclovir] | – | – | – | – | bioavailability enhancement compared to parent drug acyclovir [4]: 3- to 5 fold
